We go through 32 compounds from patent US20080051387A1, “TETRAHYDROPYRIDO[3,4-D]PYRIMIDINES AND RELATED ANALOGUES” (priority 2006, published 2008).

Where two headings read alike, the source gives them in different places. Bounds are passed on as bounds.

The target of this experiment is T1, chimeric human H3 receptor (Homo sapiens, UniProt Q9Y5N1).
T1 construct: rat Galpha-i2 (Gnai2, rat); made in house; host or cells: Sf9 insect cells (baculovirus); P2 membranes
In words: Chimeric human H3 receptor screening GTP binding assay (inhibition of histamine-stimulated GTP-gamma35S binding, Example 8). Type of experiment: biochemical. The method, boiled down:
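Compound tested at 4 μM against 1 μM histamine stimulation; 125 pM GTP-gamma35S binding measured by filtration and scintillation after 60 min at room temperature. Membranes from Sf9 cells expressing chimeric human H3 plus G-protein subunits, in Tris pH 7.4/NaCl/MgCl2/GDP buffer; values are % inhibition after nonspecific subtraction.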
Background: GTPγS is a poorly hydrolysed GTP analogue; its binding reports G protein activation.

[1] abbreviates: 1 h, assay described in Example 8, symbol "!" in column headed Ki, read-out: Ki ("!": percent inhibition of agonist-induced GTP-gammaS binding to H3).
[2] abbreviates: 1 h, assay of Example 8, symbol "!" in column headed Ki, read-out: percent inhibition of agonist-induced GTP-gammaS binding to H3.
The mark [3] stands for this setting: symbol ! in Ki, test compound 4 μM, 1 μM histamine, read-out: percent inhibition of agonist-induced GTP-gammaS binding to H3.

T1 sequence (Q9Y5N1 with tags, fused parts or gaps): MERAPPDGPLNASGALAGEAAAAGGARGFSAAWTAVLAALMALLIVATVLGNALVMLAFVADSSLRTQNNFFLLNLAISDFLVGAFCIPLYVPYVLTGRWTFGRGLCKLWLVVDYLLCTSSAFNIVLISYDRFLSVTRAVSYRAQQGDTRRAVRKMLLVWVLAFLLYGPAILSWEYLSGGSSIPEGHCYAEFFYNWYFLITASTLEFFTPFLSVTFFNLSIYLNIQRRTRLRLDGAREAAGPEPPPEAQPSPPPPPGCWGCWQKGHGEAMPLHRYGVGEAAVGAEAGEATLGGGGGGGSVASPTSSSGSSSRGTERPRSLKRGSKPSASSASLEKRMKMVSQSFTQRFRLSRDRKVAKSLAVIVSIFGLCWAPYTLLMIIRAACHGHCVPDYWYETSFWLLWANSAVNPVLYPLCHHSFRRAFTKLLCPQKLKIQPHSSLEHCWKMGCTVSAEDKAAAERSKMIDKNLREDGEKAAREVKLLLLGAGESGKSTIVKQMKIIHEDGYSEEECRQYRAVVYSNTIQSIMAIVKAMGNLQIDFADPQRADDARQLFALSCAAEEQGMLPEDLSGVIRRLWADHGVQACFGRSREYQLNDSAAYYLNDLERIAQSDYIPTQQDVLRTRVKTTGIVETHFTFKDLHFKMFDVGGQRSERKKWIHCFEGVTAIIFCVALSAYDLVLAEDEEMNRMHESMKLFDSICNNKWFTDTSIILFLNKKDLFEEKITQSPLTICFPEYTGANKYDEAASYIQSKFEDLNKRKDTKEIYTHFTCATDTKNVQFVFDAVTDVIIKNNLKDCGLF

Broadly, the inhibition is the change of the read-out against control, counted positive when it falls. As to `O=C(c1cccnc1Oc1ccccc1)N1CCc2cnc(N3CCN(C4CCC4)CC3)nc2CC1` [Compound 495, 2-(4-cyclobutylpiperazin-1-yl)-7-[(2-phenoxypyridin-3-yl)carbonyl]-6,7,8,9-tetrahydro-5H-pyrimido[4,5-d]azepine], the inhibition at 4 µM under setting [1] is at least 90%. Still for that read-out and setting: as for `Nc1ccc(Cl)cc1C(=O)N1CCc2cnc(N3CCN(C4CCC4)CC3)nc2CC1` [Compound 536, 4-chloro-2-{[2-(4-cyclobutylpiperazin-1-yl)-5,6,8,9-tetrahydro-7H-pyrimido[4,5-d]azepin-7-yl]carbonyl}aniline], the figure is at least 90%; as for `O=C(/C=C/c1cccc(C(F)(F)F)c1)N1CCc2cnc(N3CCN(C4CCC4)CC3)nc2CC1` [Compound 555, 2-(4-cyclobutylpiperazin-1-yl)-7-{(2E)-3-[3-(trifluoromethyl)phenyl]prop-2-enoyl}-6,7,8,9-tetrahydro-5H-pyrimido[4,5-d]azepine], at least 90%; as for `O=C(/C=C/c1ccc(Cl)c(Cl)c1)N1CCc2cnc(N3CCN(C4CCC4)CC3)nc2CC1` [Compound 551, 2-(4-cyclobutylpiperazin-1-yl)-7-[(2E)-3-(3,4-dichlorophenyl)prop-2-enoyl]-6,7,8,9-tetrahydro-5H-pyrimido[4,5-d]azepine], at least 90%. Turning to `Fc1cccc(CN2CCc3cnc(N4CCN(C5CCC5)CC4)nc3CC2)c1` [Compound 231, 2-(4-cyclobutylpiperazin-1-yl)-7-(3-fluorobenzyl)-6,7,8,9-tetrahydro-5H-pyrimido[4,5-d]azepine], the inhibition at 4 µM under setting [2] was at least 90%. Regarding `CCCSc1ncccc1C(=O)N1CCc2cnc(N3CCN(C4CCC4)CC3)nc2CC1` [Compound 541, 2-(4-cyclobutylpiperazin-1-yl)-7-{[2-(propylthio)pyridin-3-yl]carbonyl}-6,7,8,9-tetrahydro-5H-pyrimido[4,5-d]azepine], under setting [1], the inhibition at 4 µM is at least 90%. Same read-out and setting: as for `Cc1ccc(C(=O)N2CCc3cnc(N4CCN(C5CCC5)CC4)nc3CC2)cc1N` [Compound 532, 5-{[2-(4-cyclobutylpiperazin-1-yl)-5,6,8,9-tetrahydro-7H-pyrimido[4,5-d]azepin-7-yl]carbonyl}-2-methylaniline], the figure is at least 90%; as for `O=C(c1ccc(F)cc1F)N1CCc2cnc(N3CCN(C4CCC4)CC3)nc2CC1` [Compound 392, 2-(4-cyclobutylpiperazin-1-yl)-7-(2,4-difluorobenzoyl)-6,7,8,9-tetrahydro-5H-pyrimido[4,5-d]azepine], at least 90%. With `O=C(Cc1ccccc1)N1CCc2c(ncnc2N2CCN(C3CCC3)CC2)C1` [Compound 50, 4-(4-cyclobutylpiperazin-1-yl)-7-(phenylacetyl)-5,6,7,8-tetrahydropyrido[3,4-d]pyrimidine], the inhibition at 4 µM under setting [3] is at least 90%.

As to `CCC(C)C(=O)N1CCc2cnc(N3CCN(C4CCC4)CC3)nc2CC1` (centres unmarked) [Compound 223, 2-(4-cyclobutylpiperazin-1-yl)-7-(2-methylbutanoyl)-6,7,8,9-tetrahydro-5H-pyrimido[4,5-d]azepine], the inhibition at 4 µM under setting [2] was at least 90%.

Regarding `c1ccc2c(CN3CCc4nc(N5CCN(C6CCC6)CC5)ncc4C3)ccnc2c1` [Compound 617, 2-(4-cyclobutylpiperazin-1-yl)-6-(quinolin-4-ylmethyl)-5,6,7,8-tetrahydropyrido[4,3-d]pyrimidine], the inhibition at 4 µM under setting [3] was at least 90%. With `COc1ccc(C(=O)N2CCc3cnc(N4CCN(C5CCC5)CC4)nc3CC2)c(Cl)c1OC` [Compound 425, 7-(2-chloro-3,4-dimethoxybenzoyl)-2-(4-cyclobutylpiperazin-1-yl)-6,7,8,9-tetrahydro-5H-pyrimido[4,5-d]azepine], the inhibition at 4 µM under setting [1] is at least 90%. In the case of `O=C(C1CCOC1)N1CCc2cnc(N3CCN(C4CCC4)CC3)nc2CC1` (centres unmarked) [Compound 221, 2-(4-cyclobutylpiperazin-1-yl)-7-(tetrahydrofuran-3-ylcarbonyl)-6,7,8,9-tetrahydro-5H-pyrimido[4,5-d]azepine], the inhibition at 4 µM under setting [2] was at least 90%.

Take `Cc1cccc(CN2CCc3c(ncnc3N3CCN(C4CCC4)CC3)C2)n1` [Compound 74, 4-(4-cyclobutylpiperazin-1-yl)-7-[(6-methylpyridin-2-yl)methyl]-5,6,7,8-tetrahydropyrido[3,4-d]pyrimidine]: the inhibition at 4 µM under setting [3] was at least 90%. On the same count and under the same terms, as for `O=C(C1CCC1)N1CCc2c(ncnc2N2CCN(C3CCC3)CC2)C1` [Compound 53, 7-(cyclobutylcarbonyl)-4-(4-cyclobutylpiperazin-1-yl)-5,6,7,8-tetrahydropyrido[3,4-d]pyrimidine], the figure is at least 90%; as for `c1nc2c(c(N3CCN(C4CCC4)CC3)n1)CCN(Cc1ccc(N3CCCC3)cc1)C2` [Compound 100, 4-(4-cyclobutylpiperazin-1-yl)-7-(4-pyrrolidin-1-ylbenzyl)-5,6,7,8-tetrahydropyrido[3,4-d]pyrimidine], at least 90%.

Turning to `CCOc1ccccc1C(=O)N1CCc2cnc(N3CCN(C4CCC4)CC3)nc2CC1` [Compound 415, 2-(4-cyclobutylpiperazin-1-yl)-7-(2-ethoxybenzoyl)-6,7,8,9-tetrahydro-5H-pyrimido[4,5-d]azepine], the inhibition at 4 µM under setting [1] is at least 90%.

For the compound `Clc1ccc(CN2CCc3c(ncnc3N3CCN(C4CCC4)CC3)C2)c(Cl)c1` [Compound 99, 4-(4-cyclobutylpiperazin-1-yl)-7-(2,4-dichlorobenzyl)-5,6,7,8-tetrahydropyrido[3,4-d]pyrimidine], the inhibition at 4 µM under setting [3] was at least 90%. As for `O=C(c1cccnc1)N1CCc2cnc(N3CCN(C4CCC4)CC3)nc2CC1` [Compound 198, 2-(4-cyclobutylpiperazin-1-yl)-7-(pyridin-3-ylcarbonyl)-6,7,8,9-tetrahydro-5H-pyrimido[4,5-d]azepine], the inhibition at 4 µM under setting [2] was at least 90%. Take `O=C(/C=C/c1cccc(F)c1F)N1CCc2cnc(N3CCN(C4CCC4)CC3)nc2CC1` [Compound 554, 2-(4-cyclobutylpiperazin-1-yl)-7-[(2E)-3-(2,3-difluorophenyl)prop-2-enoyl]-6,7,8,9-tetrahydro-5H-pyrimido[4,5-d]azepine]: the inhibition at 4 µM under setting [1] was at least 90%. For `c1nc(N2CCN(C3CCC3)CC2)nc2c1CCN(CC1CC1)CC2` [Compound 254, 2-(4-cyclobutylpiperazin-1-yl)-7-(cyclopropylmethyl)-6,7,8,9-tetrahydro-5H-pyrimido[4,5-d]azepine], the inhibition at 4 µM under setting [2] was at least 90%. As for `COc1ccc(CN2CCc3cnc(N4CCN(C5CCC5)CC4)nc3CC2)c(OC)c1` [Compound 243, 2-(4-cyclobutylpiperazin-1-yl)-7-(2,4-dimethoxybenzyl)-6,7,8,9-tetrahydro-5H-pyrimido[4,5-d]azepine], the inhibition at 4 µM under setting [2] is at least 90%.

Take `c1cc(N2CCOCC2)ncc1CN1CCc2nc(N3CCN(C4CCC4)CC3)ncc2C1` [Compound 621, 2-(4-cyclobutylpiperazin-1-yl)-6-[(6-morpholin-4-ylpyridin-3-yl)methyl]-5,6,7,8-tetrahydropyrido[4,3-d]pyrimidine]: under setting [3], the inhibition at 4 µM was at least 90%. Regarding `O=C(Cc1cccc2ccccc12)N1CCc2cnc(N3CCN(C4CCC4)CC3)nc2CC1` [Compound 309, 2-(4-cyclobutylpiperazin-1-yl)-7-(1-naphthylacetyl)-6,7,8,9-tetrahydro-5H-pyrimido[4,5-d]azepine], the inhibition at 4 µM under setting [2] was at least 90%.

Take `Cc1c(N)cccc1C(=O)N1CCc2cnc(N3CCN(C4CCC4)CC3)nc2CC1` [Compound 538, 3-{[2-(4-cyclobutylpiperazin-1-yl)-5,6,8,9-tetrahydro-7H-pyrimido[4,5-d]azepin-7-yl]carbonyl}-2-methylaniline]: under setting [1], the inhibition at 4 µM was at least 90%. Same read-out and setting: for `O=C(c1cnc2ccccc2c1)N1CCc2cnc(N3CCN(C4CCC4)CC3)nc2CC1` [Compound 482, 2-(4-cyclobutylpiperazin-1-yl)-7-(quinolin-3-ylcarbonyl)-6,7,8,9-tetrahydro-5H-pyrimido[4,5-d]azepine] the value was at least 90%. Take `CCCCCN1CCc2c(ncnc2N2CCN(C3CCC3)CC2)C1` [Compound 84, 4-(4-cyclobutylpiperazin-1-yl)-7-pentyl-5,6,7,8-tetrahydropyrido[3,4-d]pyrimidine]: the inhibition at 4 µM under setting [3] was at least 90%. Consider `COc1cc(/C=C/C(=O)N2CCc3cnc(N4CCN(C5CCC5)CC4)nc3CC2)cc(OC)c1` [Compound 565, 2-(4-cyclobutylpiperazin-1-yl)-7-[(2E)-3-(3,5-dimethoxyphenyl)prop-2-enoyl]-6,7,8,9-tetrahydro-5H-pyrimido[4,5-d]azepine], for which the inhibition at 4 µM under setting [1] was at least 90%. Still for that read-out and setting: for `Cc1cc(C(=O)N2CCc3cnc(N4CCN(C5CCC5)CC4)nc3CC2)n(C(C)(C)C)n1` [Compound 505, 7-[(1-tert-butyl-3-methyl-1H-pyrazol-5-yl)carbonyl]-2-(4-cyclobutylpiperazin-1-yl)-6,7,8,9-tetrahydro-5H-pyrimido[4,5-d]azepine] the value was at least 90%.

Take `FC(F)(F)c1ccc(N2CCc3c(ncnc3N3CCN(C4CCC4)CC3)C2)nc1` [Compound 138, 4-(4-cyclobutylpiperazin-1-yl)-7-[5-(trifluoromethyl)pyridin-2-yl]-5,6,7,8-tetrahydropyrido[3,4-d]pyrimidine]: the inhibition at 4 µM under setting [3] was at least 90%. For the compound `O=C(c1cncc(C#Cc2ccccc2)c1)N1CCc2cnc(N3CCN(C4CCC4)CC3)nc2CC1` [Compound 475, 2-(4-cyclobutylpiperazin-1-yl)-7-{[5-(phenylethynyl)pyridin-3-yl]carbonyl}-6,7,8,9-tetrahydro-5H-pyrimido[4,5-d]azepine], the inhibition at 4 µM under setting [1] was at least 90%.

Turning to `COc1ccc(Br)cc1CC(=O)N1CCc2cnc(N3CCN(C4CCC4)CC3)nc2CC1` [Compound 311, 7-[(5-bromo-2-methoxyphenyl)acetyl]-2-(4-cyclobutylpiperazin-1-yl)-6,7,8,9-tetrahydro-5H-pyrimido[4,5-d]azepine], the inhibition at 4 µM under setting [2] was at least 90%.
